In US6162918A, “Xanthene and acridine derivatives” (priority 1996, dated 2000):
Read-outs that look alike come from different tables or passages of the source.

Legend:
[1] = molecular target: HSV-1 thymidine kinase (TK) (Human herpesvirus 1, UniProt P0DTH5); experiment: Inhibition of HSV-1 thymidine kinase (3H-thymidine phosphorylation, DEAE-cellulose disc assay); format: biochemical
Protocol: (§1) In this test procedure, the assay mixture contains […] Tris HCl, pH 8, 5 mmol magnesium chloride, 5 mmol ATP, […] 3H-thymidine (50 Ci/mmol), suitably diluted enzyme preparation and various concentrations of test compounds in a total volume of […]. Assays are incubated at 37° C. for 30 minutes and the reaction is terminated by immersion in a boiling water bath for 2 minutes. […] aliquots from each assay are then dried on to DEAE-cellulose paper discs and the unphosphorylated 3H-thymidine is removed by washing in 4 mmol ammonium formate. The radioactivity remaining bound to the discs is then measured by scintillation spectrophotometry. The degree of inhibition at each concentration of test compound is expressed as a percentage of the control reaction (100%) after subtracting a measured blank value which represents the amount of radioactivity bound to the disc from a reaction containing heat-inactivated enzymes. The IC50 value, namely the concentration of test compound which inhibits enzyme activity by 50%, is then calculated.

[2] = molecular target: HSV-2 thymidine kinase (TK) (Human herpesvirus 2, UniProt P04407); experiment: Inhibition of HSV-2 thymidine kinase (3H-thymidine phosphorylation, DEAE-cellulose disc assay); format: biochemical
HSV-2 thymidine kinase (TK), sequence (P04407 whole entry): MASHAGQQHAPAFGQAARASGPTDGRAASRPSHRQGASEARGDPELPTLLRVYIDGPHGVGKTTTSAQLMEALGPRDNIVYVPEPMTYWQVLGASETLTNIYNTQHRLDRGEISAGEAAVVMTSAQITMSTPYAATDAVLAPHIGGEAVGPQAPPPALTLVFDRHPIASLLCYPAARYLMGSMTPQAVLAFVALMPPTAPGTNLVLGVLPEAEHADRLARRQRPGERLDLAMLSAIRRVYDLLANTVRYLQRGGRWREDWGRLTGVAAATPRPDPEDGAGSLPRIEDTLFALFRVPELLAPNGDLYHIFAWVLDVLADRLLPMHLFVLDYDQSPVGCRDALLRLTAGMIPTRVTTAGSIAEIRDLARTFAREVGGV
Protocol: as §1

[3] = 37° C., 30 minutes, pH 8, 3H-thymidine substrate, read-out: Activity against HSV-1 TK IC50 (nmol)
[4] = 37° C., 30 minutes, pH 8, 3H-thymidine substrate, read-out: Activity against HSV-2 TK IC50 (nmol)

HSV-1 thymidine kinase (TK), sequence (P0DTH5 whole entry): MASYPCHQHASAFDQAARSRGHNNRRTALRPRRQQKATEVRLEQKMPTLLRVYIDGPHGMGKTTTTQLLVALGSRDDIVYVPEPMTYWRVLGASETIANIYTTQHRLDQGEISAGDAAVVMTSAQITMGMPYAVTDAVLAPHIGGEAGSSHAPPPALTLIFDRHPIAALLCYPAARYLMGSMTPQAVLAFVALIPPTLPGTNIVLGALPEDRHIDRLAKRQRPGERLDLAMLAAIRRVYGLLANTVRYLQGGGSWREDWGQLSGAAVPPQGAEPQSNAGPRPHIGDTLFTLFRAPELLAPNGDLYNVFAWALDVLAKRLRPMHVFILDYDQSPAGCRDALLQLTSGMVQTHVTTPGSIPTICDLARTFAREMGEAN

IC50 [1, 3] [nM]	IC50 [2, 4] [nM]	SMILES	IC50 [1] [nM]	IC50 [2] [nM]
0.52	0.27	CC1(C)CC(=O)C2=C(C1)NC1=C(C(=O)CC(C)(C)C1)C2c1ccc(Cl)c(-c2ccccc2)c1 [C, 9-[6-chloro-3-(1,1'-biphenylyl)]-3,4,6,7,9,10-hexahydro-3,3,6,6-tetramethyl-1,8(2H,5H)-acridinedione]	–	–
9.4	0.64	CC1(C)CC(=O)C2=C(C1)NC1=C(C(=O)CC(C)(C)C1)C2c1ccc(Cl)c(Cl)c1 [D, 9-(3,4-dichlorophenyl)-3,4,6,7,9,10-hexahydro-3,3,6,6-tetramethyl-1,8(2H,5H)-acridinedione]	–	–
5.9	0.44	CC1(C)CC(=O)C2=C(C1)NC1=C(C(=O)CC(C)(C)C1)C2c1ccc(Cl)c(F)c1 [E, 9-(4-chloro-3-fluorophenyl)-3,4,6,7,9,10-hexahydro-3,3,6,6-tetramethyl-1,8(2H,5H)-acridinedione]	–	–
0.44	0.18	CC1(C)CC(=O)C2=C(C1)NC1=C(C(=O)CC(C)(C)C1)C2c1ccc(Cl)c(-n2cccc2)c1 [F, 9-[4-chloro-3-(1H-pyrrol-1-yl)phenyl]-3,4,6,7,9,10-hexahydro-3,3,6,6-tetramethyl-1,8(2H,5H)-acridinedione]	–	–
12	1.5	CC1(C)CC(=O)C2=C(C1)NC1=C(C(=O)CC(C)(C)C1)C2c1ccc(Br)cc1 [H, 9(4-Bromophenyl)-3,4,6,7,9,10-hexahydro-3,3,6,6-tetramethyl-1,8(2H,5H)-acidinedione]	–	–

Second part, the molecule before the results:

SMILES	IC50 [1, 3] [nM]	IC50 [2, 4] [nM]	IC50 [1] [nM]	IC50 [2] [nM]
CCc1cn([C@H]2C[C@H](O)[C@@H](CNC(=O)C3c4ccccc4Oc4ccccc43)O2)c(=O)[nH]c1=O [2',5'-dideoxy-5-ethyl-5'-[(9-xanthenyl)carboxamido]uridine, reference compound]	–	–	4.2	0.34
CC1(C)CC(=O)C2=C(C1)NC1=C(C(=O)CC(C)(C)C1)C2c1ccc(Cl)c(Oc2ccccc2)c1 [A, 9-(4-chloro-3-phenoxyphenyl)-3,4,6,7,9,10-hexahydro-3,3,6,6-tetramethyl-1,8(2H,5H)-acridinedione]	0.3	0.095	–	–
CC1(C)CC(=O)C2=C(C1)NC1=C(C(=O)CC(C)(C)C1)C2c1ccc(Cl)c(Sc2ccccc2)c1 [B, 9-(4-chloro-3-phenylthiophenyl)-3,4,6,7,9,10-hexahydro-3,3,6,6-tetramethyl-1,8(2H,5H)-acridinedione]	0.56	0.12	–	–
CC1(C)CC(=O)C2=C(C1)NC1=C(C(=O)CC(C)(C)C1)C2c1ccc(Cl)c(Oc2ccncc2)c1 [Compound I, 9-[4-chloro-3-(4-pyridyloxy)-phenyl]-3,4,6,7,9,10-hexahydro-3,3,6,6-tetramethyl-1,8(2H,5H)-acridinedione]	0.8	0.19	–	–
CC1(C)CC(=O)C2=C(C1)NC1=C(C(=O)CC(C)(C)C1)C2c1cccc(Oc2ccccc2)c1 [G, 3,4,6,7,9,10-hexahydro-3,3,6,6-tetramethyl-9-(3-phenoxyphenyl)-1,8(2H,5H)-acridinedione]	5.8	1.1	–	–
CC1(C)CC(=O)C2=C(C1)NC1=C(C(=O)CC(C)(C)C1)C2c1ccc([N+](=O)[O-])c(OCc2ccccc2)c1 [J, 9-(3-benzyloxy-4-nitrophenyl)-3,4,6,7,9,10-hexahydro-3,3,6,6-tetramethyl-1,8(2H,5H)-acridinedione]	0.9	0.38	–	–
CC1(C)CC(=O)C2=C(C1)NC1=C(C(=O)CC(C)(C)C1)C2c1ccc(Cl)c(Sc2ccncc2)c1 [K]	2.6	0.54	–	–
